Patent publication US20240246950A1, “Anilino-Pyrazole Derivatives, Compositions and Methods Thereof” (Ensem Therapeutics, priority 2022, published 2024)

What was measured:
TOV21G = test: Cell proliferation (CyQUANT) TOV21G; assay type: cell-based; details: Homo sapiens, 168 h, 7 days, read-out: Anti-proliferation assay: IC50 (nM) [Cell Line: TOV21G]
Experimental: (§1) Cancer cell lines, namely, OVCAR3, TOV21G were seeded onto 96 well cell culture plates at a density of 2500, 1000 or 3000 cells/well, respectively and cultured overnight. Cells treated with test compounds at 3-fold dose titration for 7 days at maximum final DMSO concentration of 0.01%. The CyQUANT® Cell Proliferation Assay, a highly sensitive fluorescence-based method for quantifying cells and assessing cell proliferation and cytotoxicity was employed, following manufacturer's procedure (ThermnoFisher, Cataloge #C35012). Plates were scanned with a laser-based Acumen Cellistra instrument by TTP LabTech at Ex/Em 480/520 nm. % Inhibition is calculated based on DMSO control wells on the same plate (ie, DMSO wells have 100% growth and 0% growth inhibition).

GSK3β = GSK3β (Homo sapiens, UniProt P49841); test: In vitro kinase TR-FRET assay GSK3β; assay type: biochemical; details: enzyme 0.6 nM, ATP 7.6 μM
Chain of GSK3β (P49841 whole entry, species assumed): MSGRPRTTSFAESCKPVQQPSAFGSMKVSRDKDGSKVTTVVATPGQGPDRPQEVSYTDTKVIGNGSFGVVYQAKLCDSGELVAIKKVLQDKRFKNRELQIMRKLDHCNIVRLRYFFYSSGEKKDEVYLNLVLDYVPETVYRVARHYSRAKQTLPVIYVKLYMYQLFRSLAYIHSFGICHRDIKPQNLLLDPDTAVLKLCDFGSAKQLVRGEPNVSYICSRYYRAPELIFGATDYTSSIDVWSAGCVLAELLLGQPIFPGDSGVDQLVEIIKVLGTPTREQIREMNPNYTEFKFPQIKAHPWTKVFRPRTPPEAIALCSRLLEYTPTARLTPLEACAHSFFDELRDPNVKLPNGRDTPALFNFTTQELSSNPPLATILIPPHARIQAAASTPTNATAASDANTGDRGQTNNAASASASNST
Experimental: (§2) In vitro kinase TR-FRET assays: CDK2/CycA2, CDK2/CycE1, CDK1/cyclinB and GSK3β
(§3) The test compounds were prepared as 10 mM stock solution in 100% DMSO. The stock solution was then serially diluted 3-fold in 100% DMSO to 10 concentrations. 200 nL of each diluted compound solution was transferred to 384-well plate in duplicate. To each well, 5 uL of enzyme and ATP mixture solution containing enzyme CDK2/CycA2, CDK2/CycE1, CDK1/cyclinB, or GSK30 (final concentrations 3 nM, 0.6 nM, 0.3 nM, 0.6 nM, respectively) and ATP (final concentrations 27 μM, 82 μM, 56 μM, 7.6 μM, respectively) in the assay buffer (50 mM HEPES, pH7.5, 10 mM MgCl2, 1 mM DTT, 0.01% BSA, 0.01% Triton X-100). For negative control, 5 uL of assay buffer was added instead. The plate was incubated at room temperature for 10 min. 5 uL of peptide solution containing ULight-4E-BP1 peptide (final concentrations 50 nM) in the assay buffer was subsequently added into each well to initiate the reaction. By incubation at room temperature for 1 hour, 10 uL of 2 nM Eu-anti-phospho-4E BP1 antibody was then added for detection. After one hour incubation at room temperature, all samples were subjected to read the TR-FRET signal on Envision with excitation at 340 nm and emission fluorescence at 615 nm and 665 nm. IC50 values were then calculated by plotting dose-response curves and then using the XLfit application in Excel software.

CDK1/cyclinB = CDK1/cyclinB (Homo sapiens, UniProt P06493); test: In vitro kinase TR-FRET assay CDK1/cyclinB; assay type: biochemical; details: enzyme 0.3 nM, ATP 56 μM
Chain of CDK1/cyclinB (P06493 whole entry): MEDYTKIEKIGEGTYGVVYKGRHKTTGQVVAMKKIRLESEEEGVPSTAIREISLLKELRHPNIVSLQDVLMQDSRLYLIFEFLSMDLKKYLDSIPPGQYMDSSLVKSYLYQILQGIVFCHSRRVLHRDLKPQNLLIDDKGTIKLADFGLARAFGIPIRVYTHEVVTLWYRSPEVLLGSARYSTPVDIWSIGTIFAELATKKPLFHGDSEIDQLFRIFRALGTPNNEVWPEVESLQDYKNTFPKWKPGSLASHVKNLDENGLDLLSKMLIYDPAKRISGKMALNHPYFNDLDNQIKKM
Chain of CDK1/cyclinB (P14635 whole entry partner): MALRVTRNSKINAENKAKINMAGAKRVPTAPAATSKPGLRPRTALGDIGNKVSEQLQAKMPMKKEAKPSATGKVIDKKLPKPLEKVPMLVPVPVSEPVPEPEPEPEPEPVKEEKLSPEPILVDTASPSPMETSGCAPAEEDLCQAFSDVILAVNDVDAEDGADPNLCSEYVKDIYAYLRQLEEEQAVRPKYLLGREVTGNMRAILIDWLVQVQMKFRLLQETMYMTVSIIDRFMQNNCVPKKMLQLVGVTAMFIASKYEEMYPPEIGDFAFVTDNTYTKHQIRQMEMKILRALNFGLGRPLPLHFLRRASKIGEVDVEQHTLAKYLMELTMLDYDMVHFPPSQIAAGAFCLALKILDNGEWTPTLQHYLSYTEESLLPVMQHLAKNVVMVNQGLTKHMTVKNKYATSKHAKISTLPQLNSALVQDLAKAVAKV
Experimental: as §2, §3

CDK2/CycE1 = CDK2/CycE1 (Homo sapiens, UniProt P24941); test: In vitro kinase TR-FRET assay CDK2/CycE1; assay type: biochemical; details: enzyme 0.6 nM, ATP 82 μM, read-out: CDK2 cyclinE1 activity assay: IC50
Experimental: as §2, §3

OVCAR3 = test: Cell proliferation (CyQUANT) OVCAR3; assay type: cell-based; details: Homo sapiens, OVCAR-3, 168 h, OVCAR3, 7 days, read-out: Anti-proliferation assay: IC50 (nM) [Cell Line: OVCAR3]
Experimental: as §1

CDK2/CycA2 = CDK2/CycA2 (Homo sapiens, UniProt P24941); test: In vitro kinase TR-FRET assay CDK2/CycA2; assay type: biochemical; details: enzyme 3 nM, ATP 27 μM, read-out: CDK2 cyclinA2 activity assay: IC50
Experimental: as §2, §3

Compound | IC50 (TOV21G) [nM] | IC50 (GSK3β) [nM] | IC50 (CDK1/cyclinB) [nM] | IC50 (CDK2/CycE1) [nM] | IC50 (OVCAR3) [nM] | IC50 (CDK2/CycA2) [nM]
CC(C)NC(=O)O[C@@H]1CC[C@H](c2cc(Nc3ccc4c(c3)CCC4=O)n[nH]2)C1 [Example 25, (1R,3S)-3-{5-[(1-oxo-2,3-dihydro-1H-inden-5-yl)amino]-2H-pyrazol-3-yl}cyclopentyl (prop-2-ylamino)methanoate] | ≥ 1000 | 50 to 500 | 50 to 500 | < 50 | ≤ 500 | < 50
CC(C)NC(=O)O[C@@H]1CC[C@H](c2cc(Nc3cccc4c3CCCS4(=O)=O)n[nH]2)C1 [Example 59, (1R,3S)-3-(3-((1,1-dioxidothiochroman-5-yl)amino)-1H-pyrazol-5-yl)cyclopentyl isopropylcarbamate] | 500 to 1000 | 500 to 1000 | 50 to 500 | < 50 | ≤ 500 | < 50
Cc1c(Nc2ccc3c(c2)CS(=O)(=O)C3)n[nH]c1[C@H]1CC[C@@H](OC(=O)NC(C)(C)C)C1 [Example 44, (1R,3S)-3-{5-[(2,2-dioxo-1,3-dihydro-2%6-benzo[c]thiophen-5-yl)amino]-4-methyl-2H-pyrazol-3-yl}cyclopentyl [(2-methylprop-2-yl)amino]methanoate] | – | > 1000 | > 1000 | 50 to 500 | – | 50 to 500
CC(C)NC(=O)O[C@@H]1CC[C@H](c2cc(Nc3ccc4c(c3)N(C)C(=O)NS4(=O)=O)n[nH]2)C1 [Example 18, (1R,3S)-3-(3-((4-methyl-1,1-dioxido-3-oxo-3,4-dihydro-2H-benzo[e][1,2,4]thiadiazin-6-yl)amino)-1H-pyrazol-5-yl)cyclopentyl isopropylcarbamate] | – | 50 to 500 | 500 to 1000 | < 50 | – | < 50
CC(C)NC(=O)O[C@@H]1CC[C@H](c2cc(Nc3ccc(Cl)c4c3CCS4(=O)=O)n[nH]2)C1 [Example 64, (1R,3S)-3-(3-((7-chloro-1,1-dioxido-2,3-dihydrobenzo[b]thiophen-4-yl)amino)-1H-pyrazol-5-yl)cyclopentyl isopropylcarbamate] | ≥ 1000 | 50 to 500 | 50 to 500 | < 50 | ≤ 500 | < 50
CC(C)NC(=O)O[C@@H]1CC[C@H](c2cc(Nc3ccc4c(c3)S(=O)(=O)CCC4)n[nH]2)C1 [Example 39, (1R,3S)-3-(3-((1,1-dioxidothiochroman-7-yl)amino)-1H-pyrazol-5-yl)cyclopentyl isopropylcarbamate] | – | 50 to 500 | 50 to 500 | < 50 | – | < 50
CC(C)NC(=O)O[C@@H]1CC[C@H](c2cc(Nc3cc4c(cc3F)S(=O)(=O)CC4)n[nH]2)C1 [Example 54, (1R,3S)-3-(3-((6-fluoro-1,1-dioxido-2,3-dihydrobenzo[b]thiophen-5-yl)amino)-1H-pyrazol-5-yl)cyclopentyl isopropylcarbamate] | – | > 1000 | > 1000 | < 50 | – | < 50
CC(C)NC(=O)O[C@@H]1CC[C@H](c2cc(Nc3cccc4c3S(=O)(=O)CC4)n[nH]2)C1 [Example 35, (1R,3S)-3-{5-[(1,1-dioxo-2,3-dihydro-1λ6-benzo[2,1-b]thiophen-7-yl)amino]-2H-pyrazol-3-yl}cyclopentyl (prop-2-ylamino)methanoate] | – | > 1000 | > 1000 | > 1000 | – | > 1000
O=C(NC1CC1)O[C@@H]1CC[C@H](c2cc(Nc3nccc4c3CCS4(=O)=O)n[nH]2)C1 [Example 71, (1R,3S)-3-{5-[(1,1-dioxo-2,3-dihydro-1λ^6-thieno[3,2-c]pyridin-4-yl)amino]-2H-pyrazol-3-yl}cyclopentyl (cyclopropylamino)methanoate] | – | 50 to 500 | 50 to 500 | < 50 | – | < 50
CC(C)NC(=O)O[C@@H]1CC[C@H](c2cc(Nc3ccc4c(c3)C(C)(C)NS4(=O)=O)n[nH]2)C1 [Example 13, (1R,3S)-3-(3-((3,3-dimethyl-1,1-dioxido-2,3-dihydrobenzo[d]isothiazol-5-yl)amino)-1H-pyrazol-5-yl)cyclopentyl isopropylcarbamate] | – | 50 to 500 | 50 to 500 | < 50 | – | < 50
Cc1c([C@@H]2CC[C@H](OC(=O)NC(C)C)C2)n[nH]c1Nc1ccc2c(c1)CCS2(=O)=O (racemic) [Example 24, cis 3-{5-[(1,1-dioxo-2,3-dihydro-1λ6-benzothiophen-5-yl)amino]-4-methyl-1H-pyrazol-3-yl}cyclopentyl (prop-2-ylamino)methanoate] | – | > 1000 | > 1000 | 50 to 500 | – | 500 to 1000
CC(C)NC(=O)O[C@@H]1CC[C@H](c2cc(Nc3cc4c(cn3)CCS4(=O)=O)n[nH]2)C1 [Example 72, (1R,3S)-3-{5-[(1,1-dioxo-2,3-dihydro-1λ^6-thieno[3,2-c]pyridin-6-yl)amino]-1H-pyrazol-3-yl}cyclopentyl (prop-2-ylamino)methanoate] | – | > 1000 | < 50 | < 50 | – | < 50
CC(C)NC(=O)O[C@@H]1CC[C@H](c2cc(Nc3cccc4c3CCS(=O)(=O)N4)n[nH]2)C1 [Example 53, (1R,3S)-3-(3-((2,2-dioxido-3,4-dihydro-1H-benzo[c][1,2]thiazin-5-yl)amino)-1H-pyrazol-5-yl)cyclopentyl isopropylcarbamate] | – | > 1000 | 500 to 1000 | < 50 | – | < 50
CC(C)NC(=O)O[C@@H]1CC[C@H](c2cc(Nc3cccc4c3N(C)S(=O)(=O)C4)n[nH]2)C1 [Example 51, (1R,3S)-3-{5-[(1-methyl-2,2-dioxo-1,3-dihydro-2λ^6-benzo[2,1-c][1,2]thiazol-7-yl)amino]-2H-pyrazol-3-yl}cyclopentyl (prop-2-ylamino)methanoate] | – | > 1000 | 50 to 500 | 50 to 500 | – | 500 to 1000
CC(C)NC(=O)O[C@@H]1CC[C@H](c2cc(Nc3c(F)ccc4c3CCS4(=O)=O)n[nH]2)C1 [Example 52, (1R,3S)-3-(3-((5-fluoro-1,1-dioxido-2,3-dihydrobenzo[b]thiophen-4-yl)amino)-1H-pyrazol-5-yl)cyclopentyl isopropylcarbamate] | – | > 1000 | > 1000 | < 50 | – | 50 to 500
Cc1c(Nc2ccc3c(c2)CS(=O)(=O)C3)n[nH]c1[C@H]1CC[C@@H](OC(=O)NC(C)C)C1 [Example 43, (1R,3S)-3-{5-[(2,2-dioxo-1,3-dihydro-2λ^6-benzo[c]thiophen-5-yl)amino]-4-methyl-2H-pyrazol-3-yl}cyclopentyl (prop-2-ylamino)methanoate] | – | > 1000 | > 1000 | 50 to 500 | – | 50 to 500
CC(C)NC(=O)O[C@@H]1CC[C@H](c2cc(Nc3ccc4c(c3)C(=O)NC4)n[nH]2)C1 [Example 20, (1R,3S)-3-{5-[(3-oxo-2,3-dihydro-1H-isoindol-5-yl)amino]-2H-pyrazol-3-yl}cyclopentyl (prop-2-ylamino)methanoate] | – | > 1000 | 500 to 1000 | < 50 | – | < 50
CC(C)NC(=O)O[C@@H]1CC[C@H](c2[nH]nc(Nc3ccc4c(c3)CNS4(=O)=O)c2F)C1 [Example 14, (1R,3S)-3-(3-((1,1-dioxido-2,3-dihydrobenzo[d]isothiazol-5-yl)amino)-4-fluoro-1H-pyrazol-5-yl)cyclopentyl isopropylcarbamate] | – | > 1000 | 50 to 500 | < 50 | – | < 50
CC(C)NC(=O)O[C@@H]1CC[C@H](c2cc(Nc3cccc4c3CS(=O)(=O)N4)n[nH]2)C1 [Example 48, (1R,3S)-3-(3-((2,2-dioxido-1,3-dihydrobenzo[c]isothiazol-4-yl)amino)-1H-pyrazol-5-yl)cyclopentyl isopropylcarbamate] | – | > 1000 | > 1000 | 50 to 500 | – | 50 to 500
